Measurements as given in patent US5254533A, “Elfamycin” (Rhone-Poulenc Rorer S.A., priority 1990, dated 1993).

What was measured:
Assay in all cases: MIC, antibacterial activity (agar dilution)
Type in all cases: cell-based
Escherichia coli DC2 = settings: Mueller Hinton Agar, about 18 h at about 37° C
Experimental: (§1) Description of the test method used
(§2) The strains used, identified in the following table, were thawed at the time of use and then diluted to obtain the following concentrations:
(§3) 10^7 bacteria/ml for the aerobic bacteria
(§4) 10^6 bacteria/ml for the anaerobic bacteria.
(§5) A stock suspension of the product of formula (II) was prepared at a concentration of 3000 mg/1 in water. It was then diluted with water to obtain concentrations of 300 mg/l, 100 mg/l, 50 mg/l and 25 mg/l.
(§6) The culture media were the following:
(§7) Mueller Hinton Agar (MHA) for the aerobic cultures
(§8) Mueller Hinton Agar (MHA)+2% Fildes (MHA) for the anaerobic cultures.
(§9) Each dilution of product was added to 20 mls of the culture medium maintained supercooled at 45° C., and the medium was then poured into Petri dishes. After gentle agitation, the dishes were dried open for about 1 hour at about 37° C.
(§10) Inoculation was carried out with a DENLEY multipoint inoculator, which deposited 10^-3 ml of each inoculum per spot.
(§11) Reading was performed after about 18 hours of incubation at about 37° C. for the aerobes and about 48 hours at about 37° C. for the anaerobes.
(§12) The minimal inhibitory concentration (MIC) was the lowest concentration for which no growth was observed.

[1] = system: Bacteroides thetaiotaomicron ATCC 29741; settings: ATCC29741, anaerobic, Mueller Hinton Agar + 2% Fildes, about 48 h at about 37° C
Experimental: as §1, §2, §3, §4, §5, §6, §7, §8, §9, §10, §11, §12

Clostridium septicum = settings: anaerobic, Mueller Hinton Agar + 2% Fildes, about 48 h at about 37° C
Experimental: as §1, §2, §3, §4, §5, §6, §7, §8, §9, §10, §11, §12

Escherichia coli DCO = settings: Mueller Hinton Agar, about 18 h at about 37° C
Experimental: as §1, §2, §3, §4, §5, §6, §7, §8, §9, §10, §11, §12

With `C/C=C\C=C\C1OC(O)(C(CC)C(=O)NC/C=C/C=C(\C)C(OC)C(C)C2CC(O)C(/C=C/C=C/C=C/C(=O)O)O2)C(O)C(O)C1(C)C` (stereo not shown) [formula (II)] the MIC (Escherichia coli DC2) was 100 µg/mL, the MIC [1] was greater than 100 µg/mL and the MIC (Clostridium septicum) was greater than 100 µg/mL. For the same compound, the MIC (Escherichia coli DCO) was greater than 300 µg/mL.
